Reference: ChEMBL document CHEMBL1649386, “Synthesis and in vitro cytotoxic evaluation of some thiazolylbenzimidazole derivatives” (Eur J Med Chem, 2011)
pIC50: −log10 of the molar value.

Legend:
A549 (Homo sapiens) = assay: Cytotoxicity against human A549 cells after 72 hrs by MTT assay; settings: A549, 72 h
SMMC-7721 = assay: Cytotoxicity against human SMMC7721 cells after 72 hrs by MTT assay; settings: SMMC-7721, 72 h

SMILES: CCOC(=O)c1sc(-c2nc3ccccc3n2C)nc1C
- pIC50 (A549 (Homo sapiens)): < 4.70
- pIC50 (SMMC-7721): 4.86

SMILES: Cc1nc(-c2nc3ccccc3n2Cc2ccccc2)sc1C(=O)NC(C)C
- pIC50 (A549 (Homo sapiens)): 5.18
- pIC50 (SMMC-7721): 5.16

SMILES: CCOC(=O)c1csc(-c2nc3ccccc3n2C)n1
- pIC50 (A549 (Homo sapiens)): < 4.70
- pIC50 (SMMC-7721): 4.78

SMILES: CCOC(=O)Cc1csc(-c2nc3ccccc3n2C)n1
- pIC50 (A549 (Homo sapiens)): < 4.70
- pIC50 (SMMC-7721): < 4.70

SMILES: CCN(CC)CCNC(=O)c1sc(-c2nc3ccccc3n2Cc2ccccc2)nc1C
- pIC50 (A549 (Homo sapiens)): 5.61
- pIC50 (SMMC-7721): 5.94

SMILES: Cc1nc(-c2nc3ccccc3n2Cc2ccccc2)sc1C(=O)Nc1ccccc1
- pIC50 (A549 (Homo sapiens)): 5.40
- pIC50 (SMMC-7721): 5.43

SMILES: Cc1nc(-c2nc3ccccc3n2Cc2ccccc2)sc1C(=O)N1CCN(C)CC1
- pIC50 (A549 (Homo sapiens)): < 4.70
- pIC50 (SMMC-7721): 4.70

SMILES: Cc1nc(-c2nc3ccccc3n2Cc2ccccc2)sc1C(=O)O
- pIC50 (A549 (Homo sapiens)): < 4.70
- pIC50 (SMMC-7721): 4.82

SMILES: CCOC(=O)c1sc(-c2nc3ccccc3n2CC)nc1C
- pIC50 (A549 (Homo sapiens)): < 4.70
- pIC50 (SMMC-7721): 5.01

SMILES: Cc1nc(-c2nc3ccccc3n2Cc2ccccc2)sc1C(=O)NC1CCCCC1
- pIC50 (A549 (Homo sapiens)): 5.28
- pIC50 (SMMC-7721): 4.91

SMILES: CCOC(=O)c1sc(-c2nc3ccccc3n2C(C)C)nc1C
- pIC50 (A549 (Homo sapiens)): < 4.70
- pIC50 (SMMC-7721): < 4.70

SMILES: CC(=O)O[C@H]1C(=O)[C@@]2(C)[C@H]([C@H](OC(=O)c3ccccc3)[C@]3(O)C[C@H](OC(=O)[C@H](O)[C@@H](NC(=O)c4ccccc4)c4ccccc4)C(C)=C1C3(C)C)[C@]1(OC(C)=O)CO[C@@H]1C[C@@H]2O [PACLITAXEL]
- pIC50 (SMMC-7721): 5.85

SMILES: Cc1nc(-c2nc3ccccc3n2Cc2ccccc2)sc1C(=O)N1CCOCC1
- pIC50 (A549 (Homo sapiens)): < 4.70
- pIC50 (SMMC-7721): < 4.70

SMILES: CCOC(=O)c1sc(-c2nc3ccccc3n2Cc2ccccc2)nc1C
- pIC50 (A549 (Homo sapiens)): < 4.70
- pIC50 (SMMC-7721): 5.56

SMILES: CCOC(=O)c1csc(-c2nc3ccccc3n2Cc2ccccc2)n1
- pIC50 (A549 (Homo sapiens)): < 4.70
- pIC50 (SMMC-7721): 4.89

SMILES: CCOC(=O)c1csc(-c2nc3ccccc3n2CC)n1
- pIC50 (A549 (Homo sapiens)): < 4.70
- pIC50 (SMMC-7721): < 4.70

SMILES: Cc1nc(-c2nc3ccccc3n2Cc2ccccc2)sc1C(=O)N1CCCCC1
- pIC50 (A549 (Homo sapiens)): < 4.70
- pIC50 (SMMC-7721): < 4.70
